In US5155127A, “N-(substituted aryl)-N'-(substituted alkoxy)-ureas and thioureas as antihypercholesterolemic and antiatherosclerotic agents” (priority 1990, dated 1992):

Target: T1, acyl-CoA:cholesterol acyltransferase (ACAT) (Oryctolagus cuniculus, UniProt G1SFD9)
T1 construct: tissue preparation containing rabbit intestinal microsomes; from tissue; host or cells: rabbit intestinal microsomes
T1 sequence (G1SFD9 1-524): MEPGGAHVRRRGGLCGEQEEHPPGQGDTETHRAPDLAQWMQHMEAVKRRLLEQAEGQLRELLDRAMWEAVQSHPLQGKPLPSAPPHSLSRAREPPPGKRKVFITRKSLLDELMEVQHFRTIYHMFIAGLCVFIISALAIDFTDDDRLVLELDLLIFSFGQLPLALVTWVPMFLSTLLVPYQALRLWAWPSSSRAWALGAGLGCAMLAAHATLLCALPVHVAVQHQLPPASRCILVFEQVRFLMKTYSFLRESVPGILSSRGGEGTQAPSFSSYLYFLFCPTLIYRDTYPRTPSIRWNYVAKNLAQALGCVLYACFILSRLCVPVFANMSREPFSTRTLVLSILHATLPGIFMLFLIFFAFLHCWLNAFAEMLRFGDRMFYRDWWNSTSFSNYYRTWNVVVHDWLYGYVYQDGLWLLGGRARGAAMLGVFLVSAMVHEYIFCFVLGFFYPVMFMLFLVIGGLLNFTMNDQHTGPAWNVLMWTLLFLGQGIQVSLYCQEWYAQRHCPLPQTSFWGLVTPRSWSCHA
Assay: in vitro ACAT inhibition: radio-labeled cholesterol oleate formation from radio-labeled oleic acid in rabbit intestinal microsomes
Assay type: biochemical
Settings: read-out: IC50 (concentration of test compound required to inhibit cholesteryl oleate formation to 50% of control)
Experimental: The ability of representative compounds of the present invention to inhibit ACAT was measured using an in vitro test more fully described in Field, F. J. and Salome, R. G., Biochimica et Biophysica Acta, volume 712, pages 557-570 (1982). The test assesses the ability of a test compound to inhibit the acylation of cholesterol by oleic acid by measuring the amount of radio-labeled cholesterol oleate formed from radio-labeled oleic acid in a tissue preparation containing rabbit intestinal microsomes. The data in Table I is expressed as IC50 values, i.e., the concentration of test compound required to inhibit cholesteryl oleate formation to 50% of control.

Row | IC50 [µM] | SMILES
1 | 0.092 | CC(C)c1cccc(C(C)C)c1NC(=O)NOCc1cccc2ccccc12 [Example 3, N-[2,6-Bis(1-methylethyl)phenyl]-N'-(1-naphthalenylmethoxy)-urea]
2 | 0.03 | CC(C)c1cccc(C(C)C)c1NC(=O)NOC(c1ccccc1)c1ccccc1 [Example 1, N-[2,6-Bis(1-methylethyl)phenyl]-N'-(diphenylmethoxy)-urea]
3 | 0.053 | CC(C)c1cccc(C(C)C)c1NC(=O)NOC(c1ccccc1)(c1ccccc1)c1ccccc1 [Example 2, N-[2,6-Bis(1-methylethyl)phenyl]-N'-(triphenylmethoxy)urea]
